Test results: patent publication US20250270445A1, “COMPOUNDS AND USES THEREOF IN FIELD OF OPTOELECTRONICS” (Zhejiang Brilliant Optoelectronic Technology Co.,Ltd., priority 2022, published 2025)

Tests used:
Format in all cases: physicochemical
[1] = Solubility of compounds in toluene
Protocol: The solubility of the compounds in the toluene were determined as follows: • 1. 1000 mg of toluene solution was placed in the transparent glass sample bottle. • 2. A certain mass of the compound was added into the toluene, and oscillated until completely dissolved. • 3. After the compound was completely dissolved, a certain mass of the compound was further added into the toluene, and oscillated. • 4. The above steps were repeated until the compound wasn't dissolved any more. • 5. The total mass of the compound added was recorded and the solubility was obtained by calculation.

[2] = Absorption spectrum, emission spectrum and extinction coefficient in toluene solution; settings: for Molar extinction coefficient of the toluene solution: maximum absorption peak
Protocol: The extinction coefficients of the compounds and their absorption and emission spectrums in the solution were determined as follows: • 1. The compound with a certain amount of substance concentration in the toluene was prepared in a volumetric flask. • 2. The absorption spectrum of the solution was measured by using an ultraviolet-visible spectrophotometer (Puxi T9s) to obtain the absorption peak wavelength. • 3. The absorbance of the maximum absorption peak divided by the amount of substance concentration is the molar extinction coefficient of the compound. • 4. The emission spectrum of the solution was measured by using a fluorescent spectroscope (Hitachi, F-4700 FL Spectrophotometer) to obtain the emission peak wavelength.

[3] = Absorption and emission spectrum in spin-coated film; settings: spin-coated film
Protocol: The absorption and emission spectrums of the compounds in the film were determined as follows: • 1. The compound with a certain concentration in the toluene was prepared. • 2. The prepared toluene solution was dropped onto a clean glass substrate. • 3. Spin-coating, and then heating at the 80° C. for 1 min. • 4. The absorption spectrum of the film was measured by using an ultraviolet-visible spectrophotometer (Puxi T9s) to obtain the absorption peak wavelength. • 5. The emission spectrum of the film was measured by using a fluorescent spectroscope (Hitachi, F-4700 FL Spectrophotometer) to obtain the emission peak wavelength.

[4] = UV stability of compounds in toluene (absorbance decay to 80%); settings: 1×10^−5 mol/L in toluene, UV LEDs 365 nm & 255 nm, time to 80% absorbance, normalized to comparative compound 2 as 100%
Protocol: The compound was dissolved in the toluene with a concentration of 1×10^−5 mol/L. 3 mL solution was added to the cuvette with a lid and the lid was screwed on tightly, then the cuvette was placed in the ultraviolet-visible spectrophotometer to test the absorption spectrum, the absorbance of the maximum absorption peak was recorded as the initial value. The cuvette was placed at a distance of 12 cm from the UV LEDs (365 nm & 255 nm), irradiated for a period and tested its absorption spectrum, then continued to be irradiated after the test, and repeated until the absorbance decayed to 80% of its initial value, the time was recorded as t80.

SMILES: CCCCCCCCc1ccc(-c2cc(OC)ccc2N(c2cc(F)c(F)c(F)c2)c2cc(N(c3cc(F)c(F)c(F)c3)c3ccc(OC)cc3-c3ccc(CCCCCCCC)cc3)c3ccc4c(N(c5cc(F)c(F)c(F)c5)c5ccc(OC)cc5-c5ccc(CCCCCCCC)cc5)cc(N(c5cc(F)c(F)c(F)c5)c5ccc(OC)cc5-c5ccc(CCCCCCCC)cc5)c5ccc2c3c54)cc1 [compound 16]
- Solubilities(/100 g, toluene) [1]: >10 g/100 g toluene
- Absorption peak of the toluene solution [2]: 475 nm
- Emission peak of the toluene solution [2]: 496 nm
- Molar extinction coefficient of the toluene solution [2]: 7.0 × 10^4 L · mo 1^−1
- Absorption peak of the film [3]: 476 nm
- Emission peak of the film [3]: 496 nm
- Times t80 [4]: 383%

SMILES: Cc1cccc(C)c1N(c1cc(C(C)(C)C)cc(C(C)(C)C)c1)c1cc(N(c2cc(C(C)(C)C)cc(C(C)(C)C)c2)c2c(C)cccc2C)c2ccc3c(N(c4cc(C(C)(C)C)cc(C(C)(C)C)c4)c4c(C)cccc4C)cc(N(c4cc(C(C)(C)C)cc(C(C)(C)C)c4)c4c(C)cccc4C)c4ccc1c2c43 [compound 5]
- Solubilities(/100 g, toluene) [1]: 4.6 g/100 g toluene
- Absorption peak of the toluene solution [2]: 477 nm
- Emission peak of the toluene solution [2]: 497 nm
- Molar extinction coefficient of the toluene solution [2]: 5.6 × 10^4 L · mo 1^−1
- Absorption peak of the film [3]: 476 nm
- Emission peak of the film [3]: 497 nm
- Times t80 [4]: 304%

SMILES: Cc1cccc(C)c1N(c1ccc(C(C)(C)C)cc1)c1cc(N(c2ccc(C(C)(C)C)cc2)c2c(C)cccc2C)c2ccc3c(N(c4ccc(C(C)(C)C)cc4)c4c(C)cccc4C)cc(N(c4ccc(C(C)(C)C)cc4)c4c(C)cccc4C)c4ccc1c2c43 [compound 3]
- Solubilities(/100 g, toluene) [1]: 4.2 g/100 g toluene
- Absorption peak of the toluene solution [2]: 477 nm
- Emission peak of the toluene solution [2]: 495 nm
- Molar extinction coefficient of the toluene solution [2]: 3.0 × 10^4 L · mo 1^−1
- Absorption peak of the film [3]: 479 nm
- Emission peak of the film [3]: 497 nm
- Times t80 [4]: 212%

SMILES: c1ccc(N(c2ccc(-c3ccc(N(c4ccccc4)c4ccc5c(c4)c4ccccc4n5-c4ccccc4)cc3)cc2)c2ccc3c(c2)c2ccccc2n3-c2ccccc2)cc1 [comparative compound 2, reference compound]
- Times t80 [4]: 100%

SMILES: CCCCCCCCc1ccc(-c2c(N(c3cc(F)c(F)c(F)c3)c3cc(N(c4cc(F)c(F)c(F)c4)c4ccc5ccccc5c4-c4ccc(CCCCCCCC)cc4)c4ccc5c(N(c6cc(F)c(F)c(F)c6)c6ccc7ccccc7c6-c6ccc(CCCCCCCC)cc6)cc(N(c6cc(F)c(F)c(F)c6)c6ccc7ccccc7c6-c6ccc(CCCCCCCC)cc6)c6ccc3c4c65)ccc3ccccc23)cc1 [compound 17]
- Solubilities(/100 g, toluene) [1]: >4 g/100 g toluene
- Absorption peak of the toluene solution [2]: 475 nm
- Emission peak of the toluene solution [2]: 494 nm
- Molar extinction coefficient of the toluene solution [2]: 5.8 × 10^4 L · mo 1^−1
- Absorption peak of the film [3]: 476 nm
- Emission peak of the film [3]: 497 nm

SMILES: CCCCCCCCc1ccc(-c2cc(N(c3ccc(C(C)(C)C)cc3)c3ccc(C(C)(C)C)cc3)ccc2N(c2cc(F)c(F)c(F)c2)c2cc(N(c3cc(F)c(F)c(F)c3)c3ccc(N(c4ccc(C(C)(C)C)cc4)c4ccc(C(C)(C)C)cc4)cc3-c3ccc(CCCCCCCC)cc3)c3ccc4c(N(c5cc(F)c(F)c(F)c5)c5ccc(N(c6ccc(C(C)(C)C)cc6)c6ccc(C(C)(C)C)cc6)cc5-c5ccc(CCCCCCCC)cc5)cc(N(c5cc(F)c(F)c(F)c5)c5ccc(N(c6ccc(C(C)(C)C)cc6)c6ccc(C(C)(C)C)cc6)cc5-c5ccc(CCCCCCCC)cc5)c5ccc2c3c54)cc1 [compound 18]
- Solubilities(/100 g, toluene) [1]: >10 g/100 g toluene
- Absorption peak of the toluene solution [2]: 492 nm
- Emission peak of the toluene solution [2]: 520 nm
- Molar extinction coefficient of the toluene solution [2]: 5.1 × 10^4 L · mo 1^−1
- Absorption peak of the film [3]: 487 nm
- Emission peak of the film [3]: 518 nm

SMILES: CCc1cccc(CC)c1N(c1ccc(C(C)(C)C)cc1)c1cc(N(c2ccc(C(C)(C)C)cc2)c2c(CC)cccc2CC)c2ccc3c(N(c4ccc(C(C)(C)C)cc4)c4c(CC)cccc4CC)cc(N(c4ccc(C(C)(C)C)cc4)c4c(CC)cccc4CC)c4ccc1c2c43 [compound 9]
- Solubilities(/100 g, toluene) [1]: 25.9 g/100 g toluene
- Absorption peak of the toluene solution [2]: 482 nm
- Emission peak of the toluene solution [2]: 500 nm
- Molar extinction coefficient of the toluene solution [2]: 5.3 × 10^4 L · mo 1^−1
- Absorption peak of the film [3]: 482 nm
- Emission peak of the film [3]: 499 nm
- Times t80 [4]: 279%

SMILES: CC1CCC(C(C)C)C(Oc2ccc(-c3cc(C(C)C)ccc3N(c3cc(F)c(F)c(F)c3)c3cc(N(c4cc(F)c(F)c(F)c4)c4ccc(C(C)C)cc4-c4ccc(OC5CC(C)CCC5C(C)C)cc4)c4ccc5c(N(c6cc(F)c(F)c(F)c6)c6ccc(C(C)C)cc6-c6ccc(OC7CC(C)CCC7C(C)C)cc6)cc(N(c6cc(F)c(F)c(F)c6)c6ccc(C(C)C)cc6-c6ccc(OC7CC(C)CCC7C(C)C)cc6)c6ccc3c4c65)cc2)C1 (stereo not drawn) [compound 15]
- Solubilities(/100 g, toluene) [1]: >10 g/100 g toluene
- Absorption peak of the toluene solution [2]: 476 nm
- Emission peak of the toluene solution [2]: 493 nm
- Molar extinction coefficient of the toluene solution [2]: 6.8 × 10^4 L · mo 1^−1
- Absorption peak of the film [3]: 473 nm
- Emission peak of the film [3]: 491 nm
- Times t80 [4]: 440%

SMILES: CCCCCCCCc1ccc(N(c2ccc(C(C)C)cc2-c2cc(F)c(F)c(F)c2)c2cc(N(c3ccc(CCCCCCCC)cc3)c3ccc(C(C)C)cc3-c3cc(F)c(F)c(F)c3)c3ccc4c(N(c5ccc(CCCCCCCC)cc5)c5ccc(C(C)C)cc5-c5cc(F)c(F)c(F)c5)cc(N(c5ccc(CCCCCCCC)cc5)c5ccc(C(C)C)cc5-c5cc(F)c(F)c(F)c5)c5ccc2c3c54)cc1 [compound 20]
- Solubilities(/100 g, toluene) [1]: >10 g/100 g toluene
- Absorption peak of the toluene solution [2]: 485 nm
- Emission peak of the toluene solution [2]: 504 nm
- Molar extinction coefficient of the toluene solution [2]: 5.5 × 10^4 L · mo 1^−1
- Absorption peak of the film [3]: 486 nm
- Emission peak of the film [3]: 504 nm
- Times t80 [4]: 528%

SMILES: Cc1cccc(C)c1N(c1ccccc1)c1cc(N(c2ccccc2)c2c(C)cccc2C)c2ccc3c(N(c4ccccc4)c4c(C)cccc4C)cc(N(c4ccccc4)c4c(C)cccc4C)c4ccc1c2c43 [compound 1]
- Solubilities(/100 g, toluene) [1]: 1.5 g/100 g toluene
- Absorption peak of the toluene solution [2]: 475 nm
- Emission peak of the toluene solution [2]: 490 nm
- Molar extinction coefficient of the toluene solution [2]: 6.0 × 10^4 L · mo 1^−1
- Absorption peak of the film [3]: 477 nm
- Emission peak of the film [3]: 497 nm
- Times t80 [4]: 190%

SMILES: CCCCCCCCc1ccc(-c2cc(C(C)C)ccc2N(c2cc(F)c(F)c(F)c2)c2cc(N(c3cc(F)c(F)c(F)c3)c3ccc(C(C)C)cc3-c3ccc(CCCCCCCC)cc3)c3ccc4c(N(c5cc(F)c(F)c(F)c5)c5ccc(C(C)C)cc5-c5ccc(CCCCCCCC)cc5)cc(N(c5cc(F)c(F)c(F)c5)c5ccc(C(C)C)cc5-c5ccc(CCCCCCCC)cc5)c5ccc2c3c54)cc1 [compound 13]
- Solubilities(/100 g, toluene) [1]: >15 g/100 g toluene
- Absorption peak of the toluene solution [2]: 473 nm
- Emission peak of the toluene solution [2]: 494 nm
- Molar extinction coefficient of the toluene solution [2]: 5.9 × 10^4 L · mo 1^−1
- Absorption peak of the film [3]: 473 nm
- Emission peak of the film [3]: 490 nm
- Times t80 [4]: 410%

SMILES: CC(C)c1ccc(-c2cc(-c3cc(C(C)(C)C)cc(C(C)(C)C)c3)ccc2N(c2cc(F)c(F)c(F)c2)c2cc(N(c3cc(F)c(F)c(F)c3)c3ccc(-c4cc(C(C)(C)C)cc(C(C)(C)C)c4)cc3-c3ccc(C(C)C)cc3)c3ccc4c(N(c5cc(F)c(F)c(F)c5)c5ccc(-c6cc(C(C)(C)C)cc(C(C)(C)C)c6)cc5-c5ccc(C(C)C)cc5)cc(N(c5cc(F)c(F)c(F)c5)c5ccc(-c6cc(C(C)(C)C)cc(C(C)(C)C)c6)cc5-c5ccc(C(C)C)cc5)c5ccc2c3c54)cc1 [compound 14]
- Solubilities(/100 g, toluene) [1]: >5 g/100 g toluene
- Absorption peak of the toluene solution [2]: 475 nm
- Emission peak of the toluene solution [2]: 494 nm
- Molar extinction coefficient of the toluene solution [2]: 5.1 × 10^4 L · mo 1^−1
- Absorption peak of the film [3]: 471 nm
- Emission peak of the film [3]: 493 nm
